According to US10800792B2, “Inhibitors of Bruton's tyrosine kinase and method of their use” (JANSSEN PHARMACEUTICA NV, priority 2015, dated 2020):

Each compound was assayed against unphosphorylated-BTK kinase domain (UP-BTK), GST-tagged human BTK (389-659aa) (Homo sapiens (Human), UniProt Q06187) (assay: BTK kinase Lanthascreen binding assay). Conditions: Lanthascreen tracer competition, 60 minutes incubation; pIC50 = negative log of the IC50 in molar.
unphosphorylated-BTK kinase domain (UP-BTK), GST-tagged human BTK (389-659aa), sequence (Q06187 389-659): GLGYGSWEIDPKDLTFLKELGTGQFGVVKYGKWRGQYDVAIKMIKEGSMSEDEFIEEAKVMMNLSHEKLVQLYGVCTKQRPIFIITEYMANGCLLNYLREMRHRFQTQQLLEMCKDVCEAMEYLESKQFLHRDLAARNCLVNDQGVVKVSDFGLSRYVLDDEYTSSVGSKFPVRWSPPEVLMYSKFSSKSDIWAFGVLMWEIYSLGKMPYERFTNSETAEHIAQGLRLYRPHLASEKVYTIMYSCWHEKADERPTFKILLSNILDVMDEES
Summary of the method: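 A fluorescent tracer is bound to unphosphorylated BTK; test compound is added to compete it off; the Lanthascreen signal is read and IC50 is fitted, then reported as its negative log in molar.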
`Cc1cc(Oc2ccccc2)ccc1N1C(=O)Nc2c(C(=O)N[C@@H]3CCCN(C(=O)/C(C#N)=C/C(C)(C)C)C3)sc3nccc1c23` [Example 880, (R,E)-N-(1-(2-Cyano-4,4-dimethylpent-2-enoyl)piperidin-3-yl)-5-(2-methyl-4-phenoxyphenyl)-4-oxo-4,5-dihydro-3H-1-thia-3,5,8-triazaacenaphthylene-2-carboxamide] was tested, and the “BTK_I_binding pIC50” value was 7.1.
`C=CC(=O)N1CCC[C@@H](NC(=O)c2sc3nccc4c3c2NC(=O)N4c2cc(OC(C)C)ccc2C)C1` [Example 640, (R)—N-(1-Acryloylpiperidin-3-yl)-5-(5-isopropoxy-2-methylphenyl)-4-oxo-4,5-dihydro-3H-1-thia-3,5,8-triazaacenaphthylene-2-carboxamide] was tested, and the “BTK_I_binding pIC50” value was 5.6.
In the case of `C=CC(=O)N1CCC[C@@H](NC(=O)c2sc3nccc4c3c2NC(=O)N4c2ccc(Oc3ccccn3)cc2)C1` [Example 846, (R)—N-(1-Acryloylpiperidin-3-yl)-4-oxo-5-(4-(pyridin-2-yloxy)phenyl)-4,5-dihydro-3H-1-thia-3,5,8-triazaacenaphthylene-2-carboxamide], the “BTK_I_binding pIC50” value is reported as 7.6.
For `C=CC(=O)N1CCC[C@@H](NC(=O)c2sc3nccc4c3c2NC(=O)N4c2ccc(C)c(C(F)(F)F)c2)C1` [Example 607, (R)—N-(1-Acryloylpiperidin-3-yl)-5-(4-methyl-3-(trifluoromethyl)phenyl)-4-oxo-4,5-dihydro-3H-1-thia-3,5,8-triazaacenaphthylene-2-carboxamide], the “BTK_I_binding pIC50” value was 6.2.
With `C=CC(=O)N1CCC[C@@H](NC(=O)c2sc3nccc4c3c2NC(=O)N4c2cccc(C(C)(C)C)c2)C1` [Example 638, (R)—N-(1-Acryloylpiperidin-3-yl)-5-(3-(tert-butyl)phenyl)-4-oxo-4,5-dihydro-3H-1-thia-3,5,8-triazaacenaphthylene-2-carboxamide] the “BTK_I_binding pIC50” value was 5.7.
`C=CC(=O)N1CCC[C@@H](NC(=O)c2sc3nccc4c3c2NC(=O)N4c2ccc(Oc3cccc(COc4ccccc4C#N)c3)cc2C)C1` [Example 894, (R)—N-(1-Acryloylpiperidin-3-yl)-5-(4-(3-((2-cyanophenoxy)methyl)phenoxy)-2-methylphenyl)-4-oxo-4,5-dihydro-3H-1-thia-3,5,8-triazaacenaphthylene-2-carboxamide] was tested, and the “BTK_I_binding pIC50” value was 7.0.

Same assay, conditions: Lanthascreen tracer competition, 60 minutes incubation; pIC50 = negative log of the IC50 in molar; read-out: BTK_I_binding pIC50 (converted)
`C=CC(=O)N1CC(NC(=O)c2sc3nccc4c3c2NC(=O)N4c2ccc(Oc3ccccc3)cc2)C[C@@H](O)C1` (stereo in doubt) [Example 589, N-((3R,5R)-1-Acryloyl-5-hydroxypiperidin-3-yl)-4-oxo-5-(4-phenoxyphenyl)-4,5-dihydro-3H-1-thia-3,5,8-triazaacenaphthylene-2-carboxamide] gave an IC50 of 7.94 nM.

Same assay, conditions: pIC50 = negative log of the IC50 in molar; 60 minutes incubation, 50 nM Tracer 236
For `Cc1cc(Oc2ccccc2)ccc1N1C(=O)Nc2c(C(=O)N[C@H]3CNC[C@@H](F)C3)sc3nccc1c23` [Example 167, N-((3R,5S)-5-fluoropiperidin-3-yl)-5-(2-methyl-4-phenoxyphenyl)-4-oxo-4,5-dihydro-3H-1-thia-3,5,8-triazaacenaphthylene-2-carboxamide], the “BTK_I_binding pIC50” value was 7.0.
`Cc1cc(Oc2ccccc2)ccc1N1C(=O)Nc2c(C(=O)N[C@@H]3CCCN(C(=O)/C(C#N)=C\C(C)(C)N)C3)sc3nccc1c23` [Example 195, (R,Z)—N-(1-(4-Amino-2-cyano-4-methylpent-2-enoyl)piperidin-3-yl)-5-(2-methyl-4-phenoxyphenyl)-4-oxo-4,5-dihydro-3H-1-thia-3,5,8-triazaacenaphthylene-2-carboxamide] was tested, and the “BTK_I_binding pIC50” value was 7.4.
In the case of `Cc1cc(Oc2ccccc2)ccc1N1C(=O)Nc2c(C(=O)N[C@@H]3C[C@H](O)CN(C)C3)sc3nccc1c23` [Example 266, N-((3R,5S)-5-Hydroxy-1-methylpiperidin-3-yl)-5-(2-methyl-4-phenoxyphenyl)-4-oxo-4,5-dihydro-3H-1-thia-3,5,8-triazaacenaphthylene-2-carboxamide], the “BTK_I_binding pIC50” value is reported as 6.3.
In the case of `C=CC(=O)N1C[C@H](NC(=O)c2sc3nccc4c3c2NC(=O)N4c2ccc(Oc3ccccc3)cc2C)[C@@H](OC)C1` [Example 54, N-((3S,4S)-1-Acryloyl-4-methoxypyrrolidin-3-yl)-5-(2-methyl-4-phenoxyphenyl)-4-oxo-4,5-dihydro-3H-1-thia-3,5,8-triazaacenaphthylene-2-carboxamide], the “BTK_I_binding pIC50” value is reported as 7.3.
For `Cc1cc(Oc2ccccc2)ccc1N1C(=O)Nc2c(C(=O)NC3CCN(C)C(C)C3)sc3nccc1c23` (stereo not shown) [Example 203, N-(1,2-Dimethylpiperidin-4-yl)-5-(2-methyl-4-phenoxyphenyl)-4-oxo-4,5-dihydro-3H-1-thia-3,5,8-triazaacenaphthylene-2-carboxamide], the “BTK_I_binding pIC50” value was 6.5.
In the case of `CO[C@@H]1CNC[C@H](NC(=O)c2sc3nccc4c3c2NC(=O)N4c2ccc(Oc3ccccc3)cc2C)C1` [Example 268, N-((3R,5S)-5-Methoxypiperidin-3-yl)-5-(2-methyl-4-phenoxyphenyl)-4-oxo-4,5-dihydro-3H-1-thia-3,5,8-triazaacenaphthylene-2-carboxamide], the “BTK_I_binding pIC50” value is reported as 6.3.
`Cc1cc(Oc2ccccc2)ccc1N1C(=O)Nc2c(C(=O)NC3CNC(=O)C3)sc3nccc1c23` (stereo not shown) [Example 202, 5-(2-Methyl-4-phenoxyphenyl)-4-oxo-N-(5-oxopyrrolidin-3-yl)-4,5-dihydro-3H-1-thia-3,5,8-triazaacenaphthylene-2-carboxamide] was tested, and the “BTK_I_binding pIC50” value was 6.7.

Same assay, conditions: pIC50 = negative log of the IC50 in molar; 60 minutes incubation, 50 nM Tracer 236; read-out: BTK_I_binding pIC50 (converted)
`COc1ccc(N2C(=O)Nc3c(C(=O)N[C@@H]4CCCN(C(=O)C=[13CH2])C4)sc4nccc2c34)c(C)c1` [Example 110, (R)—N-(1-^13C-Acryloylpiperidin-3-yl)-5-(4-methoxy-2-methylphenyl)-4-oxo-4,5-dihydro-3H-1-thia-3,5,8-triazaacenaphthylene-2-carboxamide] gave an IC50 of 158 nM.

Same assay, conditions: unphosphorylated-BTK kinase domain, 50 nM Tracer 236, 60 minutes; pIC50 = negative log of the IC50 in molar
In the case of `C/C(=C\C1CC1)C(=O)N1CCC[C@@H](NC(=O)c2sc3nccc4c3c2NC(=O)N4c2ccc(Oc3ccccc3)cc2C)C1` [Example 401, (R,E)-N-(1-(3-Cyclopropyl-2-methylacryloyl)piperidin-3-yl)-5-(2-methyl-4-phenoxyphenyl)-4-oxo-4,5-dihydro-3H-1-thia-3,5,8-triazaacenaphthylene-2-carboxamide], the “BTK_I_binding pIC50” value is reported as 6.5.
With `O=C(N[C@@H]1CCCNC1)c1sc2nccc3c2c1NC(=O)N3c1ccc(Cl)c(Cl)c1` [Example 346, (R)-5-(3,4-Dichlorophenyl)-4-oxo-N-(piperidin-3-yl)-4,5-dihydro-3H-1-thia-3,5,8-triazaacenaphthylene-2-carboxamide] the “BTK_I_binding pIC50” value was <5.
`C=CC(=O)N1CCC[C@@H](NC(=O)c2sc3nccc4c3c2NC(=O)N4c2cccc(OC3CCCC3)c2)C1` [Example 561, (R)—N-(1-Acryloylpiperidin-3-yl)-5-(3-(cyclopentyloxy)phenyl)-4-oxo-4,5-dihydro-3H-1-thia-3,5,8-triazaacenaphthylene-2-carboxamide] was tested, and the “BTK_I_binding pIC50” value was 7.3.
For `C=CC(=O)N1CCC[C@@H](NC(=O)c2sc3nccc4c3c2NC(=O)N4c2ccc(OC(F)(F)F)cc2C)C1` [Example 414, (R)—N-(1-Acryloylpiperidin-3-yl)-5-(2-methyl-4-(trifluoromethoxy)phenyl)-4-oxo-4,5-dihydro-3H-1-thia-3,5,8-triazaacenaphthylene-2-carboxamide], the “BTK_I_binding pIC50” value was 7.4.
With `C=CC(=O)N1CCC(CNC(=O)c2sc3nccc4c3c2NC(=O)N4c2ccc(Oc3ccccc3)cc2)C1` (stereo not shown) [Example 452, N-((1-Acryloylpyrrolidin-3-yl)methyl)-4-oxo-5-(4-phenoxyphenyl)-4,5-dihydro-3H-1-thia-3,5,8-triazaacenaphthylene-2-carboxamide] the “BTK_I_binding pIC50” value was 7.0.
For `C/C=C/C(=O)N1CCC[C@@H](NC(=O)c2sc3nccc4c3c2NC(=O)N4c2ccc(Oc3ccccc3)cc2C)C1` (single isomer, unassigned) [Example 473, (R,*E)-N-(1-(But-2-enoyl)piperidin-3-yl)-5-(*S)-(2-methyl-4-phenoxyphenyl)-4-oxo-4,5-dihydro-3H-1-thia-3,5,8-triazaacenaphthylene-2-carboxamide], the “BTK_I_binding pIC50” value was 5.9.
With `COc1ccc(N2C(=O)Nc3c(C(=O)N[C@@H]4CCCNC4)sc4nccc2c34)cc1` [Example 342, (R)-5-(4-Methoxyphenyl)-4-oxo-N-(piperidin-3-yl)-4,5-dihydro-3H-1-thia-3,5,8-triazaacenaphthylene-2-carboxamide] the “BTK_I_binding pIC50” value was 5.2.

Same assay, conditions: unphosphorylated-BTK kinase domain, 60 minutes incubation, 50 nM Tracer 236; pIC50 = negative log of the IC50 in molar
In the case of `Cc1cc(Oc2ccccc2)ccc1N1C(=O)Nc2c(C(=O)NC3CCN(C(=O)/C(C#N)=C/C4CC4)CC3)sc3nccc1c23` [Example 916, (E)-N-(1-(2-Cyano-3-cyclopropylacryloyl)piperidin-4-yl)-5-(2-methyl-4-phenoxyphenyl)-4-oxo-4,5-dihydro-3H-1-thia-3,5,8-triazaacenaphthylene-2-carboxamide], the “BTK_I_binding pIC50” value is reported as 6.4.
With `C=CC(=O)N1CC[C@@H](NC(=O)c2sc3nccc4c3c2NC(=O)N4c2cnc(OC(C)C)cc2C)C1` (single isomer, unassigned) [Example 959, (R)—N-(1-Acryloylpyrrolidin-3-yl)-5-(*S)-(6-isopropoxy-4-methylpyridin-3-yl)-4-oxo-4,5-dihydro-3H-1-thia-3,5,8-triazaacenaphthylene-2-carboxamide] the “BTK_I_binding pIC50” value was 7.5.
With `Cc1cccc(N2C(=O)Nc3c(C(=O)N[C@@H]4CCCNC4)sc4nccc2c34)c1` [Example 950, (R)-4-Oxo-N-(piperidin-3-yl)-5-(m-tolyl)-4,5-dihydro-3H-1-thia-3,5,8-triazaacenaphthylene-2-carboxamide] the “BTK_I_binding pIC50” value was 5.1.
